ChEMBL document CHEMBL1201862, “PubChem BioAssay data set” (2004)
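Where inhibition never reached the appropriate level, the endpoint shown equals the highest concentration tested. Otherwise, values were interpolated linearly from a five-concentration, 48-hour dose response in 96-well plates. At the GI50, growth is halved.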 Active and inactive are the calls of the source. Cut-off read from the data, not from the text of the source: active = GI50 up to about 1.1 µM and inactive = higher.

Tests used:
Test in all cases: inhibition of tumour cell growth, NCI panel, 48 h
HT-29 = system: HT-29
HCT-15 = system: HCT-15
SK-MEL-28 = system: SK-MEL-28
LXFL 529 = system: LXFL 529
TK-10 = system: TK-10
OVCAR-5 = system: OVCAR-5
SF-268 = system: SF-268
NCI-H226 = system: NCI-H226
SR = system: SR
SK-OV-3 = system: SK-OV-3
DMS-114 = system: DMS-114
HL-60 = system: HL-60
DMS-273 = system: DMS-273
SF-295 = system: SF-295
KM-20L2 = system: KM-20L2
M14 = system: M14
MOLT-4 = system: MOLT-4
SN12C = system: SN12C
XF498 = system: XF498
A549 = system: A549
LOX IMVI = system: LOX IMVI
HCC 2998 = system: HCC 2998
ACHN = system: ACHN
HOP-18 = system: HOP-18
NCI-H460 = system: NCI-H460
SF-539 = system: SF-539
KM12 = system: KM12
COLO 205 = system: COLO 205
DLD-1 = system: DLD-1
UO-31 = system: UO-31
CAKI-1 = system: CAKI-1
UACC-62 = system: UACC-62
NCI-H522 = system: NCI-H522
U-251 = system: U-251
SNB-75 = system: SNB-75
SK-MEL-5 = system: SK-MEL-5
SNB-19 = system: SNB-19
EKVX = system: EKVX
HOP-62 = system: HOP-62
K562 = system: K562
NCI-H23 = system: NCI-H23
UACC-257 = system: UACC-257
OVCAR-4 = system: OVCAR-4
A498 = system: A498
SNB-78 = system: SNB-78
SK-MEL-2 = system: SK-MEL-2
OVCAR-3 = system: OVCAR-3
HCT-116 = system: HCT-116
OVCAR-8 = system: OVCAR-8
786-0 = system: 786-0
RPMI-8226 = system: RPMI-8226
CCRF-CEM = system: CCRF-CEM
RXF 393 = system: RXF 393
IGROV-1 = system: IGROV-1
Malme-3M = system: Malme-3M
SW-620 = system: SW-620
M19-MEL = system: M19-MEL
HOP-92 = system: HOP-92

Measured: GI50

C[C@H](NC(=O)OC1C2C=CC(O)C1CC2)c1ccccc1 (some centres undefined)
inactive: HT-29 > 10 µM | SK-MEL-28 > 100 µM | LXFL 529 > 100 µM | TK-10 > 100 µM | OVCAR-5 > 100 µM | SF-268 > 100 µM | NCI-H226 > 100 µM | SR 21.4 µM | SK-OV-3 > 100 µM | DMS-114 60.8 µM | HL-60 > 100 µM | DMS-273 24.4 µM | SF-295 > 100 µM | KM-20L2 45.3 µM | M14 31.1 µM | MOLT-4 > 100 µM | SN12C > 100 µM | XF498 > 100 µM | A549 > 100 µM | LOX IMVI > 100 µM | HCC 2998 > 100 µM | ACHN > 100 µM | HOP-18 > 100 µM | NCI-H460 80 µM | SF-539 > 100 µM | KM12 > 100 µM | COLO 205 40.9 µM | DLD-1 89.1 µM | UO-31 > 100 µM | CAKI-1 > 100 µM | UACC-62 > 100 µM | NCI-H522 > 100 µM | U-251 > 100 µM | SNB-75 > 100 µM | SK-MEL-5 > 100 µM | SNB-19 > 100 µM | EKVX > 100 µM | HOP-62 > 100 µM | K562 > 100 µM | NCI-H23 > 100 µM | UACC-257 > 100 µM | OVCAR-4 > 100 µM | A498 > 100 µM | SNB-78 > 100 µM | SK-MEL-2 > 100 µM | OVCAR-3 > 100 µM | HCT-116 > 100 µM | OVCAR-8 > 100 µM | 786-0 38.1 µM | RPMI-8226 22.4 µM | CCRF-CEM 81.1 µM | RXF 393 > 100 µM | IGROV-1 > 100 µM | Malme-3M > 100 µM
13.1 µM: HCT-15

O=C(Nc1ccccc1-c1nc2ccccc2[nH]c1=O)c1ccccc1
35.2 µM: HCT-15
inactive: HT-29 37.3 µM | SK-MEL-28 43.5 µM | LXFL 529 24.6 µM | TK-10 17.1 µM | OVCAR-5 63.4 µM | SF-268 22.9 µM | NCI-H226 25.2 µM | SW-620 27.9 µM | SK-OV-3 20.3 µM | DMS-114 19.5 µM | DMS-273 22.9 µM | SF-295 20.9 µM | KM-20L2 39.6 µM | M14 59.6 µM | MOLT-4 > 100 µM | SN12C 27.3 µM | XF498 24.6 µM | A549 25.9 µM | LOX IMVI 24.3 µM | HCC 2998 15.4 µM | ACHN 20.1 µM | NCI-H460 21.5 µM | SF-539 20.6 µM | KM12 28.7 µM | COLO 205 > 100 µM | DLD-1 29.2 µM | UO-31 19.6 µM | CAKI-1 29.9 µM | UACC-62 26.1 µM | NCI-H522 14.8 µM | U-251 23.3 µM | SNB-75 13.8 µM | SK-MEL-5 32.6 µM | SNB-19 24.2 µM | EKVX 25.3 µM | M19-MEL 32.5 µM | HOP-62 19.5 µM | K562 > 100 µM | NCI-H23 33.7 µM | UACC-257 44 µM | OVCAR-4 19.9 µM | A498 20.4 µM | SNB-78 24 µM | SK-MEL-2 23.5 µM | OVCAR-3 20.3 µM | HCT-116 20.1 µM | OVCAR-8 22.9 µM | HOP-92 21.4 µM | 786-0 17.3 µM | RPMI-8226 21.8 µM | CCRF-CEM > 100 µM | RXF 393 21.2 µM | IGROV-1 26.4 µM | Malme-3M 32.1 µM

O=C(Nc1ccccc1)c1cccc([N+](=O)[O-])c1
inactive: HT-29 > 100 µM | SK-MEL-28 > 100 µM | SF-268 > 100 µM | SW-620 > 100 µM | DMS-114 92.9 µM | DMS-273 > 100 µM | KM-20L2 37.5 µM | MOLT-4 60.8 µM | SN12C > 100 µM | XF498 > 100 µM | A549 > 100 µM | HCC 2998 > 100 µM | ACHN > 100 µM | HOP-18 > 100 µM | SF-539 > 100 µM | COLO 205 > 100 µM | CAKI-1 > 100 µM | UACC-62 > 100 µM | U-251 > 100 µM | SNB-75 > 100 µM | SK-MEL-5 > 100 µM | SNB-19 > 100 µM | EKVX > 100 µM | M19-MEL > 100 µM | HOP-62 > 100 µM | K562 > 100 µM | A498 > 100 µM | SNB-78 > 100 µM | OVCAR-3 > 100 µM | HCT-116 > 100 µM | OVCAR-8 > 100 µM | HOP-92 > 100 µM | 786-0 > 100 µM | RPMI-8226 39.9 µM | CCRF-CEM > 100 µM | IGROV-1 > 100 µM | Malme-3M > 100 µM
> 100 µM: HCT-15

CCOC(=O)/C(C(=O)c1ccccc1)=C1/NCCN1C
inactive: HT-29 > 100 µM | SK-MEL-28 > 100 µM | LXFL 529 > 100 µM | OVCAR-5 > 100 µM | SF-268 > 100 µM | NCI-H226 > 100 µM | SW-620 > 100 µM | SR > 100 µM | HL-60 > 100 µM | SF-295 > 100 µM | KM-20L2 > 100 µM | M14 > 100 µM | MOLT-4 > 100 µM | SN12C > 100 µM | XF498 > 100 µM | A549 > 100 µM | LOX IMVI > 100 µM | HCC 2998 > 100 µM | ACHN > 100 µM | HOP-18 > 100 µM | NCI-H460 > 100 µM | SF-539 10 µM | KM12 > 100 µM | COLO 205 > 100 µM | DLD-1 > 100 µM | UO-31 > 100 µM | CAKI-1 > 100 µM | UACC-62 > 100 µM | NCI-H522 > 100 µM | U-251 > 100 µM | SK-MEL-5 > 100 µM | SNB-19 > 100 µM | EKVX > 100 µM | M19-MEL > 100 µM | HOP-62 > 100 µM | K562 > 100 µM | NCI-H23 > 100 µM | UACC-257 > 100 µM | OVCAR-4 > 100 µM | SNB-78 > 100 µM | SK-MEL-2 > 100 µM | OVCAR-3 > 100 µM | HCT-116 > 100 µM | OVCAR-8 > 100 µM | 786-0 > 100 µM | RPMI-8226 > 100 µM | CCRF-CEM > 100 µM | RXF 393 > 100 µM | IGROV-1 > 100 µM | Malme-3M > 100 µM
> 100 µM: HCT-15
